Data set [1] can be described thus: In vitro metabolic stability, mouse liver microsomes. Format: in vitro ADME. Set-up: dose or concentration left out as unconfirmed. The conditions noted are these: pH 7.4, read-out: m-LM stab. t1/2.
Experimental: In vitro metabolic stability. Microsomes stability experiments. In vitro incubation with mouse microsomes (NADPH and UDPG system). […] At time zero, cofactors were added. […] The mixture was kept at 37° C. under shaking. Aliquots (50 mL) were taken at various time points and crashed with 0.15 mL of CH3CN spiked with 500 nM warfarin (internal standard). Reference incubation, with microsomes but without cofactors, was kept at 37° C. and sampled at the end of the time course. After vortexing and centrifugation, 3 mL of supernatant were analyzed by LCMS/MS and detected by multiple reaction monitoring (MRM).
Data set [2] addresses h-AC (Homo sapiens (Human), UniProt Q13510). Put plainly: biochemical. As to conditions: read-out: h-AC inh (%) 30 μM.
Data set [3] concerns h-AC.
The nature of data set [4]: Aqueous kinetic solubility in PBS pH 7.4. The class given is physicochemical. The conditions noted are these: phosphate-buffered saline (PBS) pH 7.4, 25 °C, pH 7.4, aqueous buffer, kinetic from dmso stock; Table 9; read-out: Aq. Skin.
The next data set is described as follows: Plasma stability. The class given is in vitro ADME. Further details: dose or concentration left out as unconfirmed. As to conditions: mouse plasma; read-out: m-plasma stab. t1/2.

≈ marks a conversion by molar mass, not a printed value.

Regarding `CCS(=O)(=O)c1ccccc1C(=O)N1CCN(c2nc3ccccc3o2)CC1` [Cmpd 6], the half-life was 0.45 h in data set [1] and greater than 2 h in “Plasma stability”. Moreover, the inhibition at 30 µM on h-AC [2] came out at 0%. Also, the “h-AC inh (%) 30 μM” value with h-AC [3] turned out to be 64%. The solubility kinetic at 24 h in data set [4] was greater than 250 µM.
The corresponding values for `CCS(=O)(=O)c1ccccc1C(=O)N1CCN(c2nc3ccc(F)c(F)c3s2)CC1` [Cmpd 35] are greater than 1 h, greater than 2 h, 0%, 12% and 7 µM (≈ 3.16 µg/mL).
`CCS(=O)(=O)c1ccccc1C(=O)N1CCN(c2nc3c(F)cc(F)cc3s2)CC1` [Cmpd 34]: the inhibition at 30 µM on h-AC [2] worked out at 4%. In the data set on h-AC [3], the “h-AC inh (%) 30 μM” value came to 17%.

The values above are taken from patent US10556892B2, “Piperazinyl methanone NAAA inhibitors” (priority 2016, dated 2020).
